Laboratory results reported in paper PMC10067098 (Cancer Medicine, 2023).

Assay: plasma pharmacokinetics, non‐compartmental analysis
Format: in vivo, human
Details: Day 1 in Cycle 1 or Day 1 in Cycle 2; data not shown
Procedure: In addition, trough plasma concentration (C trough) was measured on Day 7 in Cycle 0, and Day 1 in Cycles 1 and 2.
TEAEs were tabulated by system organ class (SOC) and preferred term (PT). For the other safety and PK endpoints, continuous data were described by mean and standard deviation (SD), median and range, and categorical data were summarized by frequency. The proportionality of the PK parameters, C max and AUC10h, was evaluated using a power model (see Table 4). For the efficacy endpoints, best overall response was tabulated as a frequency table, and the time‐to‐event data such as duration of response, PFS, and OS was evaluated using Kaplan–Meier method. All analyses were conducted using SAS® Version 9.4 (SAS Institute).

COc1cc2ncnc(Nc3ccc(F)c(Cl)c3)c2cc1OCCCN1CCOCC1 [gefitinib]
mean C max and AUC among cohorts: no specific pattern was observed
